Experimental data published in ChEMBL document CHEMBL1201862, “PubChem BioAssay data set” (2004).
Activity calls are given as the source filed them.

Key:
[1] = target: T1, Heat shock factor protein 1 (Mus musculus, UniProt P38532); experiment: inhibition of MG132-induced HSE-luciferase signal, confirmation, cell-based, NIH3T3, luminescence, dose retest (AID 2382); format: functional;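 also: NIH3T3 fibroblasts with HSF1-driven luciferase reporter stressed by proteasome inhibitor MG132; luminescence from HSF1-driven luciferase expression after 8 hours of MG132 stress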
T1 sequence (P38532 whole entry): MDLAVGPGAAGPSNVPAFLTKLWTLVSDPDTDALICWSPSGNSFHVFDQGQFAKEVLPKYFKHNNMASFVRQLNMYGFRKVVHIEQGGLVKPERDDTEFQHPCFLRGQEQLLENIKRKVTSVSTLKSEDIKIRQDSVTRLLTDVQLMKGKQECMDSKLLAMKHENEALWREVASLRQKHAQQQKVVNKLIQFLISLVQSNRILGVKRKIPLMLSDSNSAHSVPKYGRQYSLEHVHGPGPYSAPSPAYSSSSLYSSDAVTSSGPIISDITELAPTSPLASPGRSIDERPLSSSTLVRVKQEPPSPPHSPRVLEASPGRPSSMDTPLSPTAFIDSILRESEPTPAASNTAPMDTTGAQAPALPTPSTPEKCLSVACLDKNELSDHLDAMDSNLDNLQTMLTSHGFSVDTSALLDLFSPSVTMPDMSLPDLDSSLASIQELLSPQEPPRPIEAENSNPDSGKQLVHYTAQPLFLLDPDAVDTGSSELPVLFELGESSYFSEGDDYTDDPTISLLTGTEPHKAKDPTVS

[2] = target: Cytochrome P450 3A4 (Homo sapiens, UniProt P08684);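 also: CYP3A4 tested as one member of a cytochrome P450 panel screen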
Sequence of Cytochrome P450 3A4 (P08684 whole entry): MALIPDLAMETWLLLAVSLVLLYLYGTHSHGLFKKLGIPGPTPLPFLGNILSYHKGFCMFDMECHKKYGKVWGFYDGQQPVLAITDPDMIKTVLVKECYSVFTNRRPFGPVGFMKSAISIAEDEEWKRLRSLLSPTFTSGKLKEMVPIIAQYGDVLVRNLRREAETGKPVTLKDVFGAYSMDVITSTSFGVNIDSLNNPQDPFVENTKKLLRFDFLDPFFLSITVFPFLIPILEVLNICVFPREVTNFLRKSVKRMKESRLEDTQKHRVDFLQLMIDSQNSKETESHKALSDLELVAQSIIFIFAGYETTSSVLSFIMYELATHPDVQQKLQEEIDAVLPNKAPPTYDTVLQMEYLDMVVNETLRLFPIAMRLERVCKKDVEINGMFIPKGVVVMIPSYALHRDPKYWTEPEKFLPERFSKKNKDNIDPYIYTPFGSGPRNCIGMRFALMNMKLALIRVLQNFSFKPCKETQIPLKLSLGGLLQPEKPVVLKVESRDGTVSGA

[3] = target: Cytochrome P450 2C9 (Homo sapiens, UniProt P11712)
Sequence of Cytochrome P450 2C9 (P11712 whole entry): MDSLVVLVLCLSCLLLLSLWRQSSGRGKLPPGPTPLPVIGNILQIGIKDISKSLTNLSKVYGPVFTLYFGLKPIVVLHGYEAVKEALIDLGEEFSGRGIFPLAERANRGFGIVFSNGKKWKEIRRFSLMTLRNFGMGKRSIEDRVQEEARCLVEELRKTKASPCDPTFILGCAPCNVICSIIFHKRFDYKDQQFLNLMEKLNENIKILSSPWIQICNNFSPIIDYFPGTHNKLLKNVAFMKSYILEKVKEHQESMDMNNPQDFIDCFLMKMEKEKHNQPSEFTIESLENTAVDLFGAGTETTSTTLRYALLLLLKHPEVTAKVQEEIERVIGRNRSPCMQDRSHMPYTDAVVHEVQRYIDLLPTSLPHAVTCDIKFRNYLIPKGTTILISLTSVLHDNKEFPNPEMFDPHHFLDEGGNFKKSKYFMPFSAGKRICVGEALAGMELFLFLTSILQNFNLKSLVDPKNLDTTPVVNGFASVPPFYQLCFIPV

[4] = target: Cytochrome P450 2C19 (Homo sapiens, UniProt P33261); experiment: Cytochrome panel assay with activity outcomes. Panel member name: p450-cyp2c19 Compounds with AC50 equal or less than 10 uM are considered active; format: functional
Sequence of Cytochrome P450 2C19 (P33261 whole entry): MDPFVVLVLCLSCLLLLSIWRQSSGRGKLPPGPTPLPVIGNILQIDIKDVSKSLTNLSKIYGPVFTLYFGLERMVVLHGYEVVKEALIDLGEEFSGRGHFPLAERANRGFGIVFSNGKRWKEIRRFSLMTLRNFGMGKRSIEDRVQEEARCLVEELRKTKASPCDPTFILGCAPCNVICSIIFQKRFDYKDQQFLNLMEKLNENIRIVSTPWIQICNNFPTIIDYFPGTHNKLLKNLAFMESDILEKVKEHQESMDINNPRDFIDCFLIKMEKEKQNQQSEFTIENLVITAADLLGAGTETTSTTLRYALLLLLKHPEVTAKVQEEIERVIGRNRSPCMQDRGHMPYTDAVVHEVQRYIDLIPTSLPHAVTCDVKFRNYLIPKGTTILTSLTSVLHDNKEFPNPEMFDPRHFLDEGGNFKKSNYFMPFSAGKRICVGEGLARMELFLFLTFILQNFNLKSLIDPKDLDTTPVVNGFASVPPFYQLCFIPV

[5] = Luminescence Cell-Based Dose Retest to Confirm Inhibitors of Cancer Stem Cells. [Related pubchem assays (depositor defined):AID2717, AID2721]; format: functional; details: Homo sapiens
[6] = cytotoxicity toward NIH3T3 fibroblasts, dose response, counter-screen, cell-based, ATP luminescence, mouse fibroblasts (AID 2010); format: functional;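 also: cells exposed to compound for about 90 hours before reading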
[7] = inhibitors of intracellular T. cruzi replication, confirmation, NIH3T3 host cells, beta-gal luminescence (AID 2044); format: functional, cell-based;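 also: intracellular parasites grown in NIH/3T3 mouse fibroblasts as host cells; luminescent beta-galactosidase reporter signal from transgenic T. cruzi replicating inside host cells; inhibitors lower the luminescence signal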
[8] = target: Cytochrome P450 2D6 (Homo sapiens, UniProt P10635);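 also: CYP2D6 member of a cytochrome P450 panel assay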
Sequence of Cytochrome P450 2D6 (P10635 whole entry): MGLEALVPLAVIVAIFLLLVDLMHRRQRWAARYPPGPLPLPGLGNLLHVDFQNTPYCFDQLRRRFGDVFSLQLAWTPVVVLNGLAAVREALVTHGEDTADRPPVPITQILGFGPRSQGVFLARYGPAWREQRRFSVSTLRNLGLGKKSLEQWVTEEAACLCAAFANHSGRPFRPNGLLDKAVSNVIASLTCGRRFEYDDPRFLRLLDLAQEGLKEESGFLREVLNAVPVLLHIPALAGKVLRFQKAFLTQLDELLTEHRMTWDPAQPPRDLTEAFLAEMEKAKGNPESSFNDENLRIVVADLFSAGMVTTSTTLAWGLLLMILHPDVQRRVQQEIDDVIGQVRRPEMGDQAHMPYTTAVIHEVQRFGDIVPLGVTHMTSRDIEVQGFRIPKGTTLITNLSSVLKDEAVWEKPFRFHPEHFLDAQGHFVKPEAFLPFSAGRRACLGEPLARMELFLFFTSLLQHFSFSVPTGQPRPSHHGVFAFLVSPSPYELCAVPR

## CS(=O)(=O)N1CCN(c2cccc(Cl)n2)CC1
[1]
  EC50: > 195 µM (not active)

## COC(=O)C/C=C\[C@@H](C)[C@@H](/C=N\OC[C@@H](C)[C@H](OCc1ccccc1)C(C)C)OC
[2]
  AC50: 3.16 µM (inconclusive)
[3]
  AC50: 3.16 µM (inconclusive)
[4]; read-out: AC50
  AC50: 2 µM (inconclusive)

## N#Cc1ccccc1-c1ccc2ncnc(NCc3cccs3)c2c1
[3]
  AC50: 1 µM (inconclusive)
[4]; read-out: AC50
  AC50: 39.8 µM (inconclusive)

## CC(=O)Nc1ccccc1C(=O)OCC(=O)c1ccc2ccccc2c1
[4]; read-out: AC50
  AC50: 1.26 µM (inconclusive)

## CCOC(=O)N1CCC(NC(=O)CCC(=O)N2CCOc3ccccc32)CC1
[2]
  AC50: 10 µM (inconclusive)
[4]; read-out: AC50
  AC50: 14.1 µM (inconclusive)

## Cc1cccc(CNc2nc(-c3ccc4c(c3)OCO4)nc3ccccc23)c1
[3]
  AC50: 1 µM (inconclusive)

## CCN1C(=O)/C(=C\c2ccncc2)S/C1=N\c1ccc(C)c(C)c1
[5]
  AC50: 3.77 µM (active)

## C/C(=N\N(Cc1ccccc1)c1ccccc1)c1cccnc1
[6]
  EC50: > 60 µM (not active)
[7]
  EC50: 3.78 µM (active)

## Cc1ccc(-c2nnc(S)n2/N=C/c2cccn2C)cc1
[8]
  AC50: 5.01 µM (inconclusive)

## O=C(Cn1c(-c2cscn2)nc2ccccc21)Nc1cc(F)ccc1F
[8]
  AC50: 22.4 µM (inconclusive)

## Cc1cccc(N(C(=O)C(F)(F)F)C(C(=O)NC2CCCCC2)c2cccs2)c1 (stereo not given)
[6]
  EC50: > 60 µM (not active)
[7]
  EC50: 3.39 µM (active)

## N#Cc1cc(-c2ccc(Cl)cc2)cnc1Sc1ccccc1
[6]
  EC50: > 60 µM (not active)
[7]
  EC50: 3.77 µM (active)

## COc1cccc(CN(C)CC2CCCN(CCc3ccc(Cl)cc3)C2)c1OC (stereo not given)
[1]
  EC50: > 195 µM (not active)

## C/C(=N\NC(=O)c1c(C)nc2ccccn12)c1ccc(C(C)(C)C)cc1
[1]
  EC50: > 195 µM (not active)

## CCC1=NN(C(=O)c2ccc(Cl)cc2)C(O)(c2ccc(C)cc2)C1 (stereo not given)
[5]
  AC50: 4.64 µM (active)

## COc1ccc(-n2c(-c3ccccc3)nc(=S)c3c2CCCC3)cc1
[2]
  AC50: 20 µM (inconclusive)

## O=C1C=CC(=O)c2c1ccc1c2ccc2ccccc21
[8]
  AC50: 5.01 µM (inconclusive)

## O=C(COC(=O)c1cccnc1Cl)c1ccccc1
[3]
  AC50: 17.8 µM (inconclusive)
[4]; read-out: AC50
  AC50: 39.8 µM (inconclusive)

## Cc1ccc(-c2csc(NCCn3c(-c4ccncc4)nc4cc(C(F)(F)F)ccc43)n2)cc1
[5]
  AC50: 8 µM (active)

## CC(=O)OC1N=C(c2ccccc2)c2cc(Br)ccc2N(C)C1=O (stereo not given)
[3]
  AC50: 17.8 µM (inconclusive)
[4]; read-out: AC50
  AC50: 39.8 µM (inconclusive)

## CCCNC(=O)c1cccc(COCC(F)(F)F)c1
[1]
  EC50: > 195 µM (not active)

## CCc1nnc(N/N=C\c2ccc(OC(C)=O)c(OC)c2)n1N
[1]
  EC50: > 195 µM (not active)

## Cn1c(=N)n(CC(O)c2ccccc2)c2ccccc21 (stereo not given)
[1]
  EC50: > 195 µM (not active)

## Cc1cccn2c(=O)c3cc(C(=O)N4COCC4(C)C)n(C)c3nc12
[4]; read-out: AC50
  AC50: 4.47 µM (inconclusive)

## CC1(C)C[C@H](O)[C@]2(CO)[C@H](O)C[C@]3(C)C(=CCC4[C@@]5(C)CC[C@H](O)C(C)(C)C5CC[C@]43C)[C@@H]2C1 (stereo not given in full)
[5]
  AC50: 1.97 µM (active)

## Cc1cc(Cl)ccc1OCC(=O)Nc1nc(-c2cccnc2)cs1
[1]
  EC50: > 195 µM (not active)

## Cc1ccc(C)c(N2CN(Cc3cccnc3)CN=C2S)c1
[6]
  EC50: > 60 µM (inconclusive)
[7]
  EC50: 0.726 µM (active)

## Cc1cc(C(=O)Nc2nc3c(s2)CCCC3)cs1
[5]
  AC50: 1.97 µM (active)

## C=CCC(C(=O)OC)(C(=O)OC)c1ccc([N+](=O)[O-])cn1
[4]; read-out: AC50
  AC50: 14.1 µM (inconclusive)

## CN=C(S)N(CCc1c(C)[nH]c2ccc(Cl)cc12)Cc1cccs1
[6]
  EC50: > 30 µM (not active)
[7]
  EC50: 2.28 µM (active)

## O=C(c1csnn1)N1CCC[C@@]2(CCN(Cc3nccs3)C2)C1
[4]; read-out: AC50
  AC50: 25.1 µM (inconclusive)

## Cc1nn(-c2ccccc2)c2nc(N)c(C#N)c(-c3ccc(C(C)(C)C)cc3)c12
[5]
  AC50: 2.14 µM (active)

## O=S(=O)(NCC(c1cccnc1)N1CCN(Cc2ccccc2)CC1)c1ccc(Cl)cc1 (stereo not given)
[6]
  EC50: > 60 µM (not active)
[7]
  EC50: 0.641 µM (active)

## COc1ccc2c(c1)C=C(CN1CCN(C3CCCC3)C(CCO)C1)CO2 (stereo not given)
[6]
  EC50: > 60 µM (not active)
[7]
  EC50: 1.75 µM (active)

## CCOC(=O)c1c(C)nc2c(c1-c1ccccc1)C(=O)CC(C)(C)C2
[3]
  AC50: 15.8 µM (inconclusive)

## CN1CCN(c2ccc(S(=O)(=O)N3CCOCC3)cc2NC(=O)CCc2ccccc2)CC1
[6]
  EC50: > 30 µM (not active)
[7]
  EC50: 1.58 µM (active)

## CCn1cc(S(=O)(=O)Nc2ccc3c(c2)OCCO3)cn1
[1]
  EC50: 1.86 µM (active)

## COC(=O)[C@H]1C[C@@H]1[C@H](NC(=O)c1cc(C)on1)c1ccccc1
[2]
  AC50: 15.8 µM (inconclusive)
[3]
  AC50: 31.6 µM (inconclusive)

## CCc1ccc(NC(=O)C2CCC(CNC(=O)[C@@H]3Cc4ccccc4CN3)CC2)cc1 (stereo not given in full)
[1]
  EC50: > 195 µM (not active)

## Cc1ccc(C(=O)N(CCCN(C)C)c2nc3ccc(Cl)cc3s2)cc1C
[6]
  EC50: > 60 µM (inconclusive)
[7]
  EC50: 0.216 µM (active)

## CC(C)(C)c1ccc(C(=O)Nc2cccc3c(=O)[nH][nH]c(=O)c23)cc1
[1]
  EC50: 3.66 µM (active)

## COCCn1c(=O)[nH]c2cc(C(=O)N3CCN(c4ccccc4OC)CC3)ccc2c1=O
[2]
  AC50: 14.1 µM (inconclusive)
[4]; read-out: AC50
  AC50: 6.31 µM (inconclusive)

## COC(=O)[C@@]1(Cc2ccc(OC)cc2)[C@H]2c3cc(C(=O)N4CCCC4)n(Cc4cc(F)c(F)c(F)c4)c3C[C@H]2CN1C(=O)c1ccccc1
[4]; read-out: AC50
  AC50: 1.58 µM (inconclusive)

## Cc1ccccc1-c1cncnc1Nc1ccccc1
[8]
  AC50: 39.8 µM (inconclusive)

## C[C@@]12CCC(=O)C=C1CC[C@H]1[C@@H]2[C@@H](O)C[C@]2(C)[C@@H]1CC[C@@]2(O)C(=O)COC(=O)C1CCCC1
[2]
  AC50: 5.01 µM (inconclusive)

## COc1ccccc1-c1cncnc1NCCNC(C)=O
[4]; read-out: AC50
  AC50: 39.8 µM (inconclusive)

## Cc1cc(C)c(S(=O)(=O)N/N=C/c2ccc3c(c2)OCO3)c(C)c1
[1]
  EC50: > 195 µM (not active)

## COc1cc(NC(=O)N[C@@H](Cc2c[nH]c3ccccc23)C(=O)O)c(C(=O)O)cc1OC
[1]
  EC50: > 195 µM (not active)

## NC(=O)c1cc2ccncc2c2ccccc12
[1]
  EC50: 4.29 µM (active)

## CN1CC[C@@]2(CCCN(C(=O)c3cc(C(F)(F)F)cc(C(F)(F)F)c3)C2)C1
[2]
  AC50: 25.1 µM (inconclusive)

## CC1=C(CC(=O)O)c2cc(F)ccc2/C1=C\c1ccc(S(C)(=O)=O)cc1 [EXISULIND]
[4]
  AC50: inconclusive

## Cc1cc(N2CCOCC2)ncc1[N+](=O)[O-]
[3]
  AC50: 14.1 µM (inconclusive)

## COc1ccc(/C=C/C(=O)OCCCN(C)C)cc1
[6]
  EC50: > 60 µM (not active)
[7]
  EC50: 0.237 µM (active)

## CC(=O)Nc1ccc2c(c1)/C(=N/c1ccc(C(=O)O)cc1)c1ccccc1-2
[2]
  AC50: 3.98 µM (inconclusive)

## CC(C)(C)C(=O)N1CCC(O)(CS(=O)(=O)Cc2ccc(Cl)cc2)CC1
[2]
  AC50: 20 µM (inconclusive)

## COc1cc(C(=O)N/N=C(\Cc2ncc[nH]2)c2ccccc2)cc(OC)c1OC
[5]
  AC50: 2.89 µM (active)

## CCSc1nnc(NC(=O)Cc2ccc(OC)c(OC)c2)s1
[3]
  AC50: 2.82 µM (inconclusive)
[4]; read-out: AC50
  AC50: 28.2 µM (inconclusive)

## COc1ccc(OC)c(-c2csc(N(CC3CCCO3)C(=O)C3CCCCC3)n2)c1 (stereo not given)
[5]
  AC50: 3.5 µM (active)

## N=C(N)N[C@H](CCC(=O)O)C(=O)O
[2]
  AC50: 3.16 µM (inconclusive)

## O=C(Oc1ccccc1)N1CCC2(CCCN(c3ccccc3)C2)CC1
[2]
  AC50: 31.6 µM (inconclusive)
[3]
  AC50: 12.6 µM (inconclusive)

## c1cncc(CNc2nc(-c3ccoc3)nc3ccccc23)c1
[4]; read-out: AC50
  AC50: 20 µM (inconclusive)

## COc1ccc(CN2CCN(Cc3csc(C(C)=O)c3)CC2CCO)c(C)c1C (stereo not given)
[6]
  EC50: > 60 µM (not active)
[7]
  EC50: 0.284 µM (active)

## CCC(=O)N1CCc2cc(S(=O)(=O)NC(C(=O)NCc3ccc(C)cc3)C(C)C)ccc21 (stereo not given)
[1]
  EC50: > 195 µM (not active)

## Cc1ccc(C(=O)Nc2ccc(C(=O)/C=C/c3cccs3)cc2)cc1
[2]
  AC50: 5.01 µM (inconclusive)
[3]
  AC50: 11.2 µM (inconclusive)
[4]; read-out: AC50
  AC50: 7.08 µM (inconclusive)

## Cc1[nH]n(-c2ccccc2)c(=O)c1/N=N/c1cccc([N+](=O)[O-])c1
[6]
  EC50: > 60 µM (not active)
[7]
  EC50: > 30 µM (not active)

## CCc1c(C)c(C#N)c2nc3ccccc3n2c1Nc1c(C)n(C)n(-c2ccccc2)c1=O
[3]
  AC50: 5.01 µM (inconclusive)
[4]; read-out: AC50
  AC50: 25.1 µM (inconclusive)

## CC(=O)CC(=O)Nc1ccc2ccccc2c1
[4]
  AC50: inconclusive

## COc1ccc(CC2SC(N/N=C/c3ccccc3O)=NC2=O)cc1 (stereo not given)
[5]
  AC50: 8.79 µM (active)

## CCOc1ccc(CCNC(=O)c2nn(C)c3c2CS(=O)(=O)c2ccccc2-3)cc1
[1]
  EC50: > 195 µM (not active)

## CCOc1ccc(-c2nnc3ccc(SC)nn23)cc1
[4]; read-out: AC50
  AC50: 7.94 µM (inconclusive)
